From patent US9827312B2, “Method for carrying therapeutic substances into cells” (MAGFORCE AG, priority 2005, dated 2017)

How the values were obtained:
Settings in all cases: procedure of example 2
[1] = system: rectal carcinoma cells; test: Increase in the activity of cytostatics with nanoparticles (Table 1), rectal carcinoma; format: cell-based
Protocol: (§1) The experiments in vitro were carried out with the cell lines BT20 (breast carcinoma) and WiDr (colon carcinoma). The tumor cells were taken from tumor tissue of a patient and cultivated as described in DE 199 12 798 C1. 2×10^6 cells, respectively, were prepared in a 75 cm^3 cell culture bottle with 25 ml of cell culture medium (RPMI+10% FBS+1.2 ml of pyruvate for WiDr cells, or respectively BME+10% FBS+pyruvate+5 ml of non-essential amino acids+5 ml glutamine for BT20 cells) for testing the efficacy of the cefamandole/nanoparticle mixture. 136 μl of magnetic fluid MFL AS M01 (iron oxide nanoparticle coated with polycondensed N-(2-aminoethyl)-3-(trimethoxysilyl)propylamine, manufacturer: MagForce Nanotechnologies GmbH, Berlin, Germany) (cFe=2 mol/l) and 390 μl of cefamandole solution (stock solution 1 mg/ml in 0.9% NaCl) were added to said cell suspension.
(§2) Corresponding to the experiment procedure according to example 2, the following […] were tested in vitro with the active ingredients listed in table 1: a) glioblastoma human cell line RUSIRS 1; b) breast carcinoma cell lines BT20; c) colon carcinoma cell line WiDR; d) bronchial carcinoma cells NSCLC, e) rectal carcinoma cells and f) prostate carcinoma cell line DU 145.
(§3) In all cases, an increased activity of the cytostatic could be observed. The increase in activity is indicated in parentheses after the respective cytostatic, wherein (+) means an increase of about 5% to 80% and (++) means an increase of 80% to 500%.

[2] = system: prostate carcinoma cell line DU 145; test: Increase in the activity of cytostatics with nanoparticles (Table 1), DU 145; format: cell-based
Protocol: as §1, §2, §3

[3] = system: glioblastoma human cell line RUSIRS1; test: Increase in the activity of cytostatics with nanoparticles (Table 1), RUSIRS1; format: cell-based
Protocol: as §1, §2, §3

[4] = system: breast carcinoma cell lines BT20; test: Increase in the activity of cytostatics with nanoparticles (Table 1), BT20; format: cell-based, human
Protocol: as §1, §2, §3

[5] = system: colon carcinoma cell line WiDr; test: Increase in the activity of cytostatics with nanoparticles (Table 1), WiDr; format: cell-based, human
Protocol: as §1, §2, §3

[6] = system: neuroglioma cell line H4; test: Increase in the activity of cytostatics with nanoparticles (Table 1), H4; format: cell-based
Protocol: as §1, §2, §3

[7] = system: bronchial carcinoma cells NSCLC; test: Increase in the activity of cytostatics with nanoparticles (Table 1), NSCLC; format: cell-based
Protocol: as §1, §2, §3

Structure (SMILES) | increase in the activity of cytostatics [1] | increase in the activity of cytostatics [2] | increase in the activity of cytostatics [3] | increase in the activity of cytostatics [4] | increase in the activity of cytostatics [5] | increase in the activity of cytostatics [6] | increase in the activity of cytostatics [7]
Nc1ccn([C@@H]2O[C@H](CO)[C@@H](O)C2(F)F)c(=O)n1 [gemcitabine] | (+) ((+) means an increase of about 5% to 80%) | (+) ((+) means an increase of about 5% to 80%) | (+) ((+) means an increase of about 5% to 80%) | (+) ((+) means an increase of about 5% to 80%) | (+) ((+) means an increase of about 5% to 80%) | (+) ((+) means an increase of about 5% to 80%) | (++) ((++) means an increase of 80% to 500%)
CC(C)Cc1ccc(C(C)C(=O)O)cc1 (stereo not drawn) [ibuprofen] | (+) ((+) means an increase of about 5% to 80%) | (+) ((+) means an increase of about 5% to 80%) | (+) ((+) means an increase of about 5% to 80%) | (+) ((+) means an increase of about 5% to 80%) | (++) ((++) means an increase of 80% to 500%) | (+) ((+) means an increase of about 5% to 80%) | (+) ((+) means an increase of about 5% to 80%)
CC(=O)[C@]1(O)Cc2c(O)c3c(c(O)c2[C@@H](O[C@H]2C[C@H](N)[C@H](O)[C@H](C)O2)C1)C(=O)c1ccccc1C3=O [idarubicin] | (+) ((+) means an increase of about 5% to 80%) | (+) ((+) means an increase of about 5% to 80%) | (++) ((++) means an increase of 80% to 500%) | (+) ((+) means an increase of about 5% to 80%) | (+) ((+) means an increase of about 5% to 80%) | (+) ((+) means an increase of about 5% to 80%) | (++) ((++) means an increase of 80% to 500%)
Cc1ccc(NC(=O)c2ccc(CN3CCN(C)CC3)cc2)cc1Nc1nccc(-c2cccnc2)n1 [imatinib] | (+) ((+) means an increase of about 5% to 80%) | (+) ((+) means an increase of about 5% to 80%) | (+) ((+) means an increase of about 5% to 80%) | (+) ((+) means an increase of about 5% to 80%) | (++) ((++) means an increase of 80% to 500%) | (+) ((+) means an increase of about 5% to 80%) | (+) ((+) means an increase of about 5% to 80%)
Cc1oncc1C(=O)Nc1ccc(C(F)(F)F)cc1 [leflunomide] | (+) ((+) means an increase of about 5% to 80%) | (+) ((+) means an increase of about 5% to 80%) | (+) ((+) means an increase of about 5% to 80%) | (+) ((+) means an increase of about 5% to 80%) | (+) ((+) means an increase of about 5% to 80%) | (+) ((+) means an increase of about 5% to 80%) | (+) ((+) means an increase of about 5% to 80%)
N#Cc1ccc(C(c2ccc(C#N)cc2)n2cncn2)cc1 [letrozole] | (+) ((+) means an increase of about 5% to 80%) | (+) ((+) means an increase of about 5% to 80%) | (+) ((+) means an increase of about 5% to 80%) | (+) ((+) means an increase of about 5% to 80%) | (+) ((+) means an increase of about 5% to 80%) | (+) ((+) means an increase of about 5% to 80%) | (+) ((+) means an increase of about 5% to 80%)
Cc1onc(-c2ccccc2)c1C(=O)N[C@@H]1C(=O)N2[C@@H]1SC(C)(C)[C@@H]2C(=O)O [oxacillin] | (+) ((+) means an increase of about 5% to 80%) | (++) ((++) means an increase of 80% to 500%) | (+) ((+) means an increase of about 5% to 80%) | (+) ((+) means an increase of about 5% to 80%) | (++) ((++) means an increase of 80% to 500%) | (+) ((+) means an increase of about 5% to 80%) | (+) ((+) means an increase of about 5% to 80%)
CC(=O)O[C@H]1C(=O)[C@@]2(C)[C@H]([C@H](OC(=O)c3ccccc3)[C@]3(O)C[C@H](OC(=O)[C@H](O)[C@@H](NC(=O)c4ccccc4)c4ccccc4)C(C)=C1C3(C)C)[C@]1(OC(C)=O)CO[C@@H]1C[C@@H]2O [paclitaxel] | (+) ((+) means an increase of about 5% to 80%) | (+) ((+) means an increase of about 5% to 80%) | (+) ((+) means an increase of about 5% to 80%) | (++) ((++) means an increase of 80% to 500%) | (+) ((+) means an increase of about 5% to 80%) | (+) ((+) means an increase of about 5% to 80%) | (+) ((+) means an increase of about 5% to 80%)
CO[C@H]1C[C@@H]2CC[C@@H](C)[C@@](O)(O2)C(=O)C(=O)N2CCCC[C@H]2C(=O)O[C@H]([C@H](C)C[C@@H]2CC[C@@H](O)[C@H](OC)C2)CC(=O)[C@H](C)/C=C(\C)[C@@H](O)[C@@H](OC)C(=O)[C@H](C)C[C@H](C)/C=C/C=C/C=C/1C [rapamycin] | (++) ((++) means an increase of 80% to 500%) | (+) ((+) means an increase of about 5% to 80%) | (+) ((+) means an increase of about 5% to 80%) | (++) ((++) means an increase of 80% to 500%) | (+) ((+) means an increase of about 5% to 80%) | (+) ((+) means an increase of about 5% to 80%) | (+) ((+) means an increase of about 5% to 80%)
CCC(C)(C)C(=O)O[C@H]1C[C@@H](C)C=C2C=C[C@H](C)[C@H](CC[C@@H]3C[C@@H](O)CC(=O)O3)[C@H]21 [simvastatin] | (+) ((+) means an increase of about 5% to 80%) | (+) ((+) means an increase of about 5% to 80%) | (+) ((+) means an increase of about 5% to 80%) | (+) ((+) means an increase of about 5% to 80%) | (+) ((+) means an increase of about 5% to 80%) | (+) ((+) means an increase of about 5% to 80%) | (++) ((++) means an increase of 80% to 500%)
CN(C)[C@@H]1C(O)=C(C(N)=O)C(=O)[C@@]2(O)C(O)=C3C(=O)c4c(O)cccc4[C@@](C)(O)[C@H]3C[C@@H]12 [tetracycline] | (++) ((++) means an increase of 80% to 500%) | (++) ((++) means an increase of 80% to 500%) | (+) ((+) means an increase of about 5% to 80%) | (+) ((+) means an increase of about 5% to 80%) | (+) ((+) means an increase of about 5% to 80%) | (+) ((+) means an increase of about 5% to 80%) | (+) ((+) means an increase of about 5% to 80%)
NC[C@H]1O[C@H](O[C@H]2[C@H](O)[C@@H](O[C@H]3O[C@H](CO)[C@@H](O)[C@H](N)[C@H]3O)[C@H](N)C[C@@H]2N)[C@H](N)C[C@@H]1O [tobramycin] | (+) ((+) means an increase of about 5% to 80%) | (+) ((+) means an increase of about 5% to 80%) | (+) ((+) means an increase of about 5% to 80%) | (+) ((+) means an increase of about 5% to 80%) | (+) ((+) means an increase of about 5% to 80%) | (+) ((+) means an increase of about 5% to 80%) | (+) ((+) means an increase of about 5% to 80%)
